The record followed here is ChEMBL document CHEMBL1800037, “Anti-proliferative activity of aguerin B and a new rare nor-guaianolide lactone isolated from the aerial parts of Centaurea deflexa” (Eur J Med Chem, 2011).

For data set [1], the system named is MIA PaCa-2. Kind of data set: Induction of apoptosis in human MIAPaCa2 cells assessed as increase of interneucleosomal DNA fragmentation at 10 uM after 24 hrs. It counts as functional, cell-based.
The subject of data set [2] is MIA PaCa-2. Kind of data set: Antiproliferative activity against human MIAPaCa2 cells after 48 to 72 hrs. It counts as functional, cell-based.
Data set [3] can be described thus: Antiproliferative activity against human COLO320 cells after 72 hrs. The format is functional, cell-based. Particulars: COLO 320, 72 h.
In data set [4] the test system is MIA PaCa-2. Kind of data set: Antiproliferative activity against human MIAPaCa2 cells after 48 hrs. The format is functional, cell-based. Particulars: MIA PaCa-2, 48 h.
The next data set relates to HEK293. Kind of data set: Antiproliferative activity against human HEK293 cells up to 100 uM. The format is cell-based.
Data set [5] concerns COLO 320. Kind of data set: Induction of apoptosis in human COLO320 cells assessed as increase of interneucleosomal DNA fragmentation at 10 uM after 24 hrs. It counts as functional, cell-based.
The test system of data set [6] is MIA PaCa-2. Kind of data set: Antiproliferative activity against human MIAPaCa2 cells. It counts as functional, cell-based. Conditions: TDE = time-dependent effect.
The subject of data set [7] is MIA PaCa-2. The experiment in a line: Antiproliferative activity against human MIAPaCa2 cells after 72 hrs. It counts as functional, cell-based. Particulars: MIA PaCa-2, 72 h.
Data set [8] is described as follows: Antiproliferative activity against human COLO320 cells after 48 hrs. The format is functional, cell-based. Conditions: COLO 320, 48 h.
Data set [9] deals with COLO 320. The experiment in a line: Antiproliferative activity against human COLO320 cells after 48 to 72 hrs. It counts as functional, cell-based.
Data set [10] has as its system COLO 320. Kind of data set: Antiproliferative activity against human COLO320 cells. The format is functional, cell-based. Conditions: TDE = time-dependent effect.
The test system of data set [11] is MIA PaCa-2. Kind of data set: Induction of apoptosis in human MIAPaCa2 cells assessed as increase of interneucleosomal DNA fragmentation at 5 uM after 24 hrs relative to control. It counts as functional.
Data set [12] deals with COLO 320. The experiment in a line: Induction of apoptosis in human COLO320 cells assessed as increase of interneucleosomal DNA fragmentation at 5 uM after 24 hrs relative to control. The format is functional.

Structures are written as SMILES. Activity calls are given as the source filed them. The calls are words filed in the database; no cut-off is given here.

With `C=C1C[C@H](O)[C@@H]2[C@H](OC(=O)[C@H]2C)[C@H]2CC(=O)C[C@@H]12`, the result with MIA PaCa-2 [1] and with COLO 320 [5] was inactive. Moreover, the Activity result in the data set on MIA PaCa-2 [2] was “Dose-dependent effect”; with HEK293, “Non-toxic”; with MIA PaCa-2 [6], “tde”; in the data set with COLO 320 [9], “Dose-dependent effect”; in the data set on COLO 320 [10], “tde”. Moreover, the concentration for half-maximal inhibition (IC50) in data set [3] was determined as 6 µM; in the data set with MIA PaCa-2 [4], 25.7 µM; in the data set on MIA PaCa-2 [7], 15.9 µM; in data set [8], 10 µM.
`C=C(C)C(=O)O[C@H]1CC(=C)[C@@H]2C[C@H](O)C(=C)[C@@H]2[C@H]2OC(=O)C(=C)[C@@H]21` [AGUERIN B]: the “fold change (FC)” value with MIA PaCa-2 [11] and in the data set with COLO 320 [12] was more than 2 in each case. The Activity entry is “Dose-dependent effect” in the data set on MIA PaCa-2 [2]; “Non-toxic” in the data set with HEK293; “tde” with MIA PaCa-2 [6]; “Dose-dependent effect” in the data set on COLO 320 [9]; “tde” in the data set with COLO 320 [10]. Further, the IC50 worked out at 2.6 µM in data set [3], 7.5 µM in the data set on MIA PaCa-2 [4], 3.6 µM in the data set with MIA PaCa-2 [7] and 3.2 µM in data set [8].
For `O=c1[nH]cc(F)c(=O)[nH]1` [FLUOROURACIL], the IC50 in data set [3] worked out at 8.7 µM; in the data set with MIA PaCa-2 [4] it was 14 µM; with MIA PaCa-2 [7], 7.4 µM; in [8], 10 µM.
